Experimental data reported in PubChem BioAssay (NCI).
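The compound was tested at five concentrations on cells cultured in 96-well plates, with a 48-hour exposure period. TGI: concentration producing complete growth inhibition.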

Tests used:
Test in all cases: growth of human tumour cells (NCI), 48 h
TK-10 renal = tested on: TK-10 renal
MCF7 breast = tested on: MCF7 breast
ACHN renal = tested on: ACHN renal
SK-OV-3 ovarian = tested on: SK-OV-3 ovarian
OVCAR-5 ovarian = tested on: OVCAR-5 ovarian
KM12 colon = tested on: KM12 colon
SW-620 colon = tested on: SW-620 colon
MDA-MB-435 = tested on: MDA-MB-435
HCT-116 colon = tested on: HCT-116 colon
BT-549 breast = tested on: BT-549 breast
SNB-19 CNS = tested on: SNB-19 CNS
HS 578T breast = tested on: HS 578T breast
A549 NSCLC = tested on: A549 NSCLC
MDA-N = tested on: MDA-N
IGROV1 ovarian = tested on: IGROV1 ovarian
NCI-H460 lung = tested on: NCI-H460 lung
SK-MEL-2 melanoma = tested on: SK-MEL-2 melanoma
SR leukemia = tested on: SR leukemia
HT29 colon = tested on: HT29 colon
SN12C renal = tested on: SN12C renal
OVCAR-8 ovarian = tested on: OVCAR-8 ovarian
EKVX NSCLC = tested on: EKVX NSCLC
CAKI-1 renal = tested on: CAKI-1 renal
HCT-15 colon = tested on: HCT-15 colon
PC-3 prostate = tested on: PC-3 prostate
M14 melanoma = tested on: M14 melanoma
T-47D breast = tested on: T-47D breast
SK-MEL-28 melanoma = tested on: SK-MEL-28 melanoma
NCI/ADR-RES ovarian = tested on: NCI/ADR-RES ovarian
NCI-H522 lung = tested on: NCI-H522 lung
SF-295 CNS = tested on: SF-295 CNS
NCI-H226 lung = tested on: NCI-H226 lung
MALME-3M melanoma = tested on: MALME-3M melanoma
UO-31 renal = tested on: UO-31 renal
UACC-257 melanoma = tested on: UACC-257 melanoma
CCRF-CEM leukemia = tested on: CCRF-CEM leukemia
SNB-75 CNS = tested on: SNB-75 CNS
786-0 renal = tested on: 786-0 renal
OVCAR-4 ovarian = tested on: OVCAR-4 ovarian
COLO 205 colon = tested on: COLO 205 colon
MOLT-4 leukemia = tested on: MOLT-4 leukemia
K-562 leukemia = tested on: K-562 leukemia
HOP-92 NSCLC = tested on: HOP-92 NSCLC
HL-60(TB) leukemia = tested on: HL-60(TB) leukemia
RPMI-8226 leukemia = tested on: RPMI-8226 leukemia
UACC-62 melanoma = tested on: UACC-62 melanoma
HOP-62 NSCLC = tested on: HOP-62 NSCLC
NCI-H23 lung = tested on: NCI-H23 lung
OVCAR-3 ovarian = tested on: OVCAR-3 ovarian
SF-268 CNS = tested on: SF-268 CNS
LOX IMVI melanoma = tested on: LOX IMVI melanoma
U251 CNS = tested on: U251 CNS
DU-145 prostate = tested on: DU-145 prostate
MDA-MB-231 breast = tested on: MDA-MB-231 breast
SF-539 CNS = tested on: SF-539 CNS
HCC-2998 colon = tested on: HCC-2998 colon
SK-MEL-5 melanoma = tested on: SK-MEL-5 melanoma

c1ccc(N=C(Nc2ccccc2)N2CCCCC2)cc1
TGI (TK-10 renal): > 100 µM
TGI (MCF7 breast): > 100 µM
TGI (ACHN renal): > 100 µM
TGI (SK-OV-3 ovarian): > 100 µM
TGI (OVCAR-5 ovarian): > 100 µM
TGI (KM12 colon): > 100 µM
TGI (SW-620 colon): > 100 µM
TGI (MDA-MB-435): > 100 µM
TGI (HCT-116 colon): > 100 µM
TGI (BT-549 breast): > 100 µM
TGI (SNB-19 CNS): > 100 µM
TGI (HS 578T breast): > 100 µM
TGI (A549 NSCLC): > 100 µM
TGI (MDA-N): > 100 µM
TGI (IGROV1 ovarian): > 100 µM
TGI (NCI-H460 lung): > 100 µM
TGI (SK-MEL-2 melanoma): > 100 µM
TGI (SR leukemia): > 100 µM
TGI (HT29 colon): > 100 µM
TGI (SN12C renal): > 100 µM
TGI (OVCAR-8 ovarian): > 100 µM
TGI (EKVX NSCLC): > 100 µM
TGI (CAKI-1 renal): > 100 µM
TGI (HCT-15 colon): > 100 µM
TGI (PC-3 prostate): > 100 µM
TGI (M14 melanoma): 84.9 µM
TGI (T-47D breast): > 100 µM
TGI (SK-MEL-28 melanoma): > 100 µM
TGI (NCI/ADR-RES ovarian): > 100 µM
TGI (NCI-H522 lung): > 100 µM
TGI (SF-295 CNS): > 100 µM
TGI (NCI-H226 lung): > 100 µM
TGI (MALME-3M melanoma): > 100 µM
TGI (UO-31 renal): > 100 µM
TGI (UACC-257 melanoma): 68.9 µM
TGI (CCRF-CEM leukemia): > 100 µM
TGI (SNB-75 CNS): > 100 µM
TGI (786-0 renal): > 100 µM
TGI (OVCAR-4 ovarian): > 100 µM
TGI (COLO 205 colon): > 100 µM
TGI (MOLT-4 leukemia): > 100 µM
TGI (K-562 leukemia): > 100 µM
TGI (HOP-92 NSCLC): > 100 µM
TGI (HL-60(TB) leukemia): > 100 µM
TGI (RPMI-8226 leukemia): > 100 µM
TGI (UACC-62 melanoma): > 100 µM
TGI (HOP-62 NSCLC): > 100 µM
TGI (NCI-H23 lung): > 100 µM
TGI (OVCAR-3 ovarian): > 100 µM
TGI (SF-268 CNS): > 100 µM
TGI (LOX IMVI melanoma): > 100 µM
TGI (U251 CNS): > 100 µM

COC1CC(OC2C(C)OC(OC3C(C)OC(OC4C(O)CC(O[C@H]5CC[C@@]6(C)C(=CC[C@]7(O)[C@@H]6C[C@@H](OC(=O)/C=C/c6ccccc6)[C@@]6(C)[C@]7(O)CC[C@@]6(O)C(C)=O)C5)OC4C)CC3OC)CC2OC)OC(C)C1O (some centres not stated)
TGI (TK-10 renal): > 6.25 µM
TGI (MCF7 breast): > 6.25 µM
TGI (ACHN renal): > 6.25 µM
TGI (DU-145 prostate): > 6.25 µM
TGI (SK-OV-3 ovarian): > 6.25 µM
TGI (OVCAR-5 ovarian): > 6.25 µM
TGI (KM12 colon): > 6.25 µM
TGI (SW-620 colon): > 6.25 µM
TGI (MDA-MB-231 breast): > 6.25 µM
TGI (MDA-MB-435): > 6.25 µM
TGI (HCT-116 colon): > 6.25 µM
TGI (BT-549 breast): > 6.25 µM
TGI (SNB-19 CNS): > 6.25 µM
TGI (HS 578T breast): > 6.25 µM
TGI (SF-539 CNS): > 6.25 µM
TGI (A549 NSCLC): > 6.25 µM
TGI (MDA-N): > 6.25 µM
TGI (IGROV1 ovarian): > 6.25 µM
TGI (HCC-2998 colon): > 6.25 µM
TGI (SK-MEL-2 melanoma): > 6.25 µM
TGI (SR leukemia): > 6.25 µM
TGI (HT29 colon): > 6.25 µM
TGI (SN12C renal): > 6.25 µM
TGI (OVCAR-8 ovarian): > 6.25 µM
TGI (EKVX NSCLC): > 6.25 µM
TGI (CAKI-1 renal): > 6.25 µM
TGI (HCT-15 colon): > 6.25 µM
TGI (PC-3 prostate): > 6.25 µM
TGI (M14 melanoma): > 6.25 µM
TGI (T-47D breast): > 6.25 µM
TGI (NCI/ADR-RES ovarian): > 6.25 µM
TGI (NCI-H522 lung): > 6.25 µM
TGI (SF-295 CNS): > 6.25 µM
TGI (NCI-H226 lung): > 6.25 µM
TGI (MALME-3M melanoma): > 6.25 µM
TGI (UO-31 renal): > 6.25 µM
TGI (UACC-257 melanoma): > 6.25 µM
TGI (CCRF-CEM leukemia): > 6.25 µM
TGI (SNB-75 CNS): > 6.25 µM
TGI (786-0 renal): > 6.25 µM
TGI (OVCAR-4 ovarian): > 6.25 µM
TGI (COLO 205 colon): > 6.25 µM
TGI (SK-MEL-5 melanoma): > 6.25 µM
TGI (MOLT-4 leukemia): > 6.25 µM
TGI (K-562 leukemia): > 6.25 µM
TGI (HOP-92 NSCLC): > 6.25 µM
TGI (HL-60(TB) leukemia): > 6.25 µM
TGI (RPMI-8226 leukemia): > 6.25 µM
TGI (UACC-62 melanoma): > 6.25 µM
TGI (HOP-62 NSCLC): > 6.25 µM
TGI (NCI-H23 lung): > 6.25 µM
TGI (OVCAR-3 ovarian): > 6.25 µM
TGI (SF-268 CNS): > 6.25 µM
TGI (LOX IMVI melanoma): > 6.25 µM
TGI (U251 CNS): > 6.25 µM
